pIC50: −log10 of the molar value.
How the values were obtained:
MAT2A homodimer = molecular target: T1, MAT2A homodimer (Homo sapiens, UniProt P31153); experiment: MAT2A inhibition (biochemical, liberated phosphate, PiColorLock Gold); conditions: recombinant MAT2A homodimer; IC50 bin with Max Inh.; read-out: Enzyme Inhibition Bin
T1 construct: inferred from Ni sepharose purification with imidazole elution; made in house; host or cells: Sf9 insect cells, baculovirus (Bac to Bac, pFASTBAC1)
Outline: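 Baculovirus/Sf9-expressed, Ni-purified MAT2A (4 μg/mL) preincubated with compound 60 min at 25 °C in Tris pH 8.0/KCl/MgCl2 buffer. Reaction started with 500 μM ATP and 400 μM L-methionine (substrate-mix concentrations), run 60 min at 25 °C. Phosphate measured colorimetrically against a phosphate standard curve to give IC50.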

[1] = tested on: SAM in HCT116 human colon carcinoma cell line with MTAP gene deleted (MTAP −/−); experiment: Cellular assay of target engagement (SAM), LC-MS/MS, 72 hrs; type: cell-based; conditions: HCT-116, IC50 bin with Max Inh., read-out: Cell 72 h SAM Inhibition (MTAP −/−)
Outline: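 MTAP-deleted HCT116 cells plated 24 h, then given 10-point 3-fold dilutions for 72 hrs at 37° C. Intracellular SAM extracted in cold 80% methanol with 1M acetic acid and d3-SAM standard, quantified by LC-MS/MS (MRM m/z 399.2→250.1); IC50 derived.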

HCT116 MTAP−/− = experiment: Inhibition of cellular proliferation, 4 days, Cell Titer Glo, HCT116 MTAP−/−; type: cell-based; conditions: Homo sapiens, HCT-116, 96 h, IC50 bin with Max Inh., read-out: 4 Day Relative Growth Inhibition (MTAP −/−)
Outline: (§1)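 Isogenic HCT116 pair differing only in MTAP status, plated 24 h before treatment with 10-point 3-fold dilutions; 4 days at 37° C./5% CO2. Cell Titer Glo luminescence, blank-subtracted and normalised to 0.2% DMSO control, gives percentage proliferation vs log molar concentration for IC50.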

HCT116 MTAP+/+ = experiment: Inhibition of cellular proliferation, 4 days, Cell Titer Glo, HCT116 MTAP+/+; type: cell-based; conditions: Homo sapiens, HCT-116, 96 h, IC50 bin with Max Inh., read-out: 4 Day Relative Growth Inhibition (MTAP +/+)
Outline: as §1

T1 sequence (P31153 whole entry): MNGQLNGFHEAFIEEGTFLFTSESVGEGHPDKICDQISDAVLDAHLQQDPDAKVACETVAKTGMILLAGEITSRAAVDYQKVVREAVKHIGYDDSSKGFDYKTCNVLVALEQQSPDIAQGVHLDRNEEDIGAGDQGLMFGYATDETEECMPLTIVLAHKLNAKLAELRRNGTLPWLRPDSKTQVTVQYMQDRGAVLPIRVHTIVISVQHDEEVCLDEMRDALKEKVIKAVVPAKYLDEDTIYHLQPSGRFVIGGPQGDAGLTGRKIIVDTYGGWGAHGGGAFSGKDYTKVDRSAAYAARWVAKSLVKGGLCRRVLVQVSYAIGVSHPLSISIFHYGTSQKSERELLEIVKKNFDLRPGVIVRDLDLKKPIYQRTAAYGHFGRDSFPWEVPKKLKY

SMILES | pIC50 (MAT2A homodimer) | pIC50 [1] | pIC50 (HCT116 MTAP−/−) | pIC50 (HCT116 MTAP+/+)
Cn1cc2cc(-n3nc4ccn(CC5CC5)c4c(-c4ccc(C(N)=O)nc4)c3=O)ccc2n1 [Example 155, 5-(5-(cyclopropylmethyl)-2-(2-methyl-2H-indazol-5-yl)-3-oxo-3,5-dihydro-2H-pyrrolo[3,2-c]pyridazin-4-yl)picolinamide] | > 7.00 | 6.00 to 7.00 | 6.00 to 7.00 | < 6.00
Cc1nc2ccc(-n3nc4ccn(CC5CC5)c4c(-c4ccc(C5CC5)nc4)c3=O)cc2n1C [Example 156, 5-(cyclopropylmethyl)-4-(6-cyclopropylpyridin-3-yl)-2-(1,2-dimethyl-1H-benzo[d]imidazol-6-yl)-2,5-dihydro-3H-pyrrolo[3,2-c]pyridazin-3-one] | > 7.00 | > 7.00 | > 7.00 | > 7.00
Cn1cc2cc(-n3nc4ccn(CC5CC5)c4c(-c4ccc(CO)nc4)c3=O)ccc2n1 [Example 157, 5-(cyclopropylmethyl)-4-(6-(hydroxymethyl)pyridin-3-yl)-2-(2-methyl-2H-indazol-5-yl)-2,5-dihydro-3H-pyrrolo[3,2-c]pyridazin-3-one] | > 7.00 | > 7.00 | > 7.00 | 6.00 to 7.00
Cn1cc2cc(-n3nc4c(C#N)cn(CC5CC5)c4c(-c4ccc(CO)nc4)c3=O)ccc2n1 [Example 158, 5-(cyclopropylmethyl)-4-(6-(hydroxymethyl)pyridin-3-yl)-2-(2-methyl-2H-indazol-5-yl)-3-oxo-3,5-dihydro-2H-pyrrolo[3,2-c]pyridazine-7-carbonitrile] | > 7.00 | 6.00 to 7.00 | 6.00 to 7.00 | < 6.00
Cn1cc2cc(-n3nc4c(C#N)cn(CC5CCC5)c4c(-c4ccc(C5CC5)nc4)c3=O)ccc2n1 [Example 159, 5-(cyclobutylmethyl)-4-(6-cyclopropylpyridin-3-yl)-2-(2-methyl-2H-indazol-5-yl)-3-oxo-3,5-dihydro-2H-pyrrolo[3,2-c]pyridazine-7-carbonitrile] | > 7.00 | > 7.00 | 6.00 to 7.00 | < 6.00
N#Cc1cn(CC2CC2)c2c(-c3ccc(C4CC4)nc3)c(=O)n(-c3ccc4nn(CC5CC5)cc4c3)nc12 [Example 160, 5-(cyclopropylmethyl)-2-(2-(cyclopropylmethyl)-2H-indazol-5-yl)-4-(6-cyclopropylpyridin-3-yl)-3-oxo-3,5-dihydro-2H-pyrrolo[3,2-c]pyridazine-7-carbonitrile] | > 7.00 | > 7.00 | > 7.00 | 6.00 to 7.00
[2H]C([2H])([2H])Oc1ccc(-c2c(=O)n(-c3ccc4nn(C)cc4c3)nc3c(C#N)cn(CC4CC4)c23)cc1 [Example 161, 5-(cyclopropylmethyl)-4-(4-(methoxy-d3)phenyl)-2-(2-methyl-2H-indazol-5-yl)-3-oxo-3,5-dihydro-2H-pyrrolo[3,2-c]pyridazine-7-carbonitrile] | > 7.00 | > 7.00 | > 7.00 | < 6.00
CNC(=O)c1cn(CC2CC2)c2c(-c3ccc(C4CC4)nc3)c(=O)n(-c3ccc4nn(C)cc4c3)nc12 [Example 162, 5-(cyclopropylmethyl)-4-(6-cyclopropylpyridin-3-yl)-N-methyl-2-(2-methyl-2H-indazol-5-yl)-3-oxo-2H,3H,5H-pyrrolopyridazine-7-carboxamide] | > 7.00 | > 7.00 | > 7.00 | 6.00 to 7.00
Cn1cc2cc(-n3nc4c(C(=O)O)cn(CC5CC5)c4c(-c4ccc(C5CC5)nc4)c3=O)ccc2n1 [Example 163, 5-(cyclopropylmethyl)-4-(6-cyclopropylpyridin-3-yl)-2-(2-methyl-2H-indazol-5-yl)-3-oxo-3,5-dihydro-2H-pyrrolo[3,2-c]pyridazine-7-carboxylic acid] | > 6.00 | < 6.00 | 6.00 to 7.00 | < 6.00
Cn1cc2cc(-n3nc4c(C(N)=O)cn(CC5CC5)c4c(-c4ccc(C5CC5)nc4)c3=O)ccc2n1 [Example 165, 5-(cyclopropylmethyl)-4-(6-cyclopropylpyridin-3-yl)-2-(2-methyl-2H-indazol-5-yl)-3-oxo-3,5-dihydro-2H-pyrrolo[3,2-c]pyridazine-7-carboxamide] | > 7.00 | > 7.00 | > 7.00 | 6.00 to 7.00
Cn1cc2cc(-n3nc4c(C(N)=O)cn(CC5CC5)c4c(-c4ccc(C5CC5)cc4)c3=O)ccc2n1 [Example 166, 5-(cyclopropylmethyl)-4-(4-cyclopropylphenyl)-2-(2-methyl-2H-indazol-5-yl)-3-oxo-3,5-dihydro-2H-pyrrolo[3,2-c]pyridazine-7-carboxamide] | > 7.00 | > 7.00 | > 7.00 | < 6.00
CNC(=O)c1cn(CC2CC2)c2c(-c3ccc(C4CC4)cc3)c(=O)n(-c3ccc4nn(C)cc4c3)nc12 [Example 167, 5-(cyclopropylmethyl)-4-(4-cyclopropylphenyl)-N-methyl-2-(2-methyl-2H-indazol-5-yl)-3-oxo-3,5-dihydro-2H-pyrrolo[3,2-c]pyridazine-7-carboxamide] | > 7.00 | > 7.00 | > 7.00 | > 7.00
Cn1cc2cc(-n3nc4c(C(N)=O)cn(CC5CC5)c4c(-c4ccc(OC(F)F)cc4)c3=O)ccc2n1 [Example 168, 5-(cyclopropylmethyl)-4-(4-(difluoromethoxy)phenyl)-2-(2-methyl-2H-indazol-5-yl)-3-oxo-3,5-dihydro-2H-pyrrolo[3,2-c]pyridazine-7-carboxamide] | > 7.00 | > 7.00 | > 7.00 | < 6.00
CNC(=O)c1cn(CC2CC2)c2c(-c3ccc(OC(F)F)cc3)c(=O)n(-c3ccc4nn(C)cc4c3)nc12 [Example 169, 5-(cyclopropylmethyl)-4-(4-(difluoromethoxy)phenyl)-N-methyl-2-(2-methyl-2H-indazol-5-yl)-3-oxo-3,5-dihydro-2H-pyrrolo[3,2-c]pyridazine-7-carboxamide] | > 7.00 | > 7.00 | > 7.00 | 6.00 to 7.00
Cn1cc2cc(-n3nc4c(C(N)=O)cn(CC5CC5)c4c(-c4ccc(Cl)cc4)c3=O)ccc2n1 [Example 170, 4-(4-chlorophenyl)-5-(cyclopropylmethyl)-2-(2-methyl-2H-indazol-5-yl)-3-oxo-3,5-dihydro-2H-pyrrolo[3,2-c]pyridazine-7-carboxamide] | > 7.00 | > 7.00 | > 7.00 | < 6.00
CNC(=O)c1cn(CC2CC2)c2c(-c3ccc(Cl)cc3)c(=O)n(-c3ccc4nn(C)cc4c3)nc12 [Example 171, 4-(4-chlorophenyl)-5-(cyclopropylmethyl)-N-methyl-2-(2-methyl-2H-indazol-5-yl)-3-oxo-3,5-dihydro-2H-pyrrolo[3,2-c]pyridazine-7-carboxamide] | > 7.00 | > 7.00 | > 7.00 | > 7.00
[2H]C([2H])([2H])n1cc2cc(-n3nc4c(C(=O)NC)cn(CC5CC5)c4c(-c4ccc(C5CC5)nc4)c3=O)ccc2n1 [Example 172, 5-(cyclopropylmethyl)-4-(6-cyclopropylpyridin-3-yl)-N-methyl-2-(2-(methyl-d3)-2H-indazol-5-yl)-3-oxo-3,5-dihydro-2H-pyrrolo[3,2-c]pyridazine-7-carboxamide] | > 7.00 | > 7.00 | > 7.00 | < 6.00
[2H]C([2H])([2H])Oc1ccc(-c2c(=O)n(-c3ccc4nn(C)cc4c3)nc3c(C(N)=O)cn(CC4CC4)c23)cc1 [Example 173, 5-(cyclopropylmethyl)-4-(4-(methoxy-d3)phenyl)-2-(2-methyl-2H-indazol-5-yl)-3-oxo-3,5-dihydro-2H-pyrrolo[3,2-c]pyridazine-7-carboxamide] | > 7.00 | > 7.00 | > 7.00 | < 6.00
[2H]C([2H])([2H])Oc1ccc(-c2c(=O)n(-c3ccc4nn(C)cc4c3)nc3c(C(=O)NC)cn(CC4CC4)c23)cc1 [Example 174, 5-(cyclopropylmethyl)-4-(4-(methoxy-d3)phenyl)-N-methyl-2-(2-methyl-2H-indazol-5-yl)-3-oxo-3,5-dihydro-2H-pyrrolo[3,2-c]pyridazine-7-carboxamide] | > 7.00 | > 7.00 | > 7.00 | 6.00 to 7.00
Cc1ccc(-c2c(=O)n(-c3ccc4nn(C)cc4c3)nc3c(C(N)=O)cn(CC4CC4)c23)cn1 [Example 175, 5-(cyclopropylmethyl)-2-(2-methyl-2H-indazol-5-yl)-4-(6-methylpyridin-3-yl)-3-oxo-3,5-dihydro-2H-pyrrolo[3,2-c]pyridazine-7-carboxamide] | > 7.00 | 6.00 to 7.00 | 6.00 to 7.00 | < 6.00

Reference: patent US20220169654A1, “New Organic Compounds” (Servier Pharmaceuticals LLC, priority 2020, published 2022)
